Measured values reported in US9594084B2, “Phosphorylation of histones and uses thereof” (H. LEE MOFFITT CANCER CENTER AND RESEARCH INSTITUTE, priority 2012, dated 2017).

What was measured:
[1] = tested on: pTyr37-H2B upstream of the Hist1 cluster; assay: Native ChIP-qPCR with pTyr37-H2B antibody at Hist1 Site I and II in synchronized MEFs; format: cell-based, mouse; details: 6.30 hours post-release
Protocol: FIG. 1A is a diagram illustrating the position of histone genes in mouse Hist1 subcluster 1 showing two pTyr37-H2B binding sites. Starting nucleotide position is shown above. Subclusterl is conserved between human and mouse. FIG. 1B-1D are bar graphs showing Native Chromatin immunoprecipitation (ChIP) (% input DNA) in synchronized MEFs treated with WEE1 inhibitor or untreated and harvested at 0 and 6.30 hours post-release. Native ChIP was performed using pTyr37-H2B or IgG antibodies followed by quantitative PCR using primers corresponding to Site I (FIG. 1B), Site II (FIG. 1C) and control site (FIG. 1D). Data shown are representative of three independent experiments. *p=0.001; **p=0.006. FIG. 1E is bar graph showing ChIP in synchronized MEFs harvested at 0 and 6.30 hours post-release using WEE1 or IgG antibodies followed by quantitative PCR using primers corresponding to Site II. […] FIG. 1F is bar graph showing ChIP in cells transfected with control or WEE1 siRNAs performed using pTyr37-H2B antibodies followed by quantitative PCR using primers corresponding to Site II. […]
As a first step, extensive standardization of pTyr37-H2B antibodies were performed for its usage in ChIP. […] Pellets were resuspended and the resulting DNA was quantified on a NanoDrop spectrophotometer. Extrapolation to the original chromatin volume allowed quantitation of the total chromatin yield. […]

WEE1 = WEE1 (Homo sapiens, UniProt P30291); assay: Peptide Immunosandwich Assay (PIA) with GBM tumor lysates; format: biochemical; details: 100 ug of lysates, 10 uM for 30 minutes
Protocol: Threshold interval is shown.
In brief, Streptavidin coated 96-well plates (R&D systems) were incubated with biotinylated human histone H2B derived peptides […] (SEQ ID NO: 62, Y37 site is underlined). H2B derived phospho-peptide KRSRKESp[…] (SEQ ID NO: 63) was used as positive control. Any unbound areas on the plate were blocked with 3% BSA. Next, purified WEE1 protein (100 ng) prepared in kinase buffer (20 mM HEPES, 225 mM NaCl, 1% Triton X-100, 10% glycerol, phosphatase and protease inhibitors) supplemented with 1 uM ATP and 1 uM MgCl2. After 2 hours of incubation, plates were washed with phosphate buffered saline containing 0.1% Tween 20 (PBST) and reblocked in 3% BSA. The pY37-H2B or pTyr antibodies (at 1:1000 dilution) were added and incubated for 1 hour. Unbound antibodies were washed and HRP-conjugated anti-mouse secondary antibodies (1:5000) were added. The magnitude of phosphorylation was detected using developer solution (OPD tablets, Sigma) and after 20 minutes of incubation, the plates were read at 450 nm.
To assess the WEE1 epigenetic activity in GBM patients, lysates were prepared from 8 GBM tumor biopsies and 3 normal brain samples as a control. The lysates were quantitated and 100 ug of lysates was used per reaction. Each reaction was performed in triplicates. […]

Chain of WEE1 (P30291 whole entry): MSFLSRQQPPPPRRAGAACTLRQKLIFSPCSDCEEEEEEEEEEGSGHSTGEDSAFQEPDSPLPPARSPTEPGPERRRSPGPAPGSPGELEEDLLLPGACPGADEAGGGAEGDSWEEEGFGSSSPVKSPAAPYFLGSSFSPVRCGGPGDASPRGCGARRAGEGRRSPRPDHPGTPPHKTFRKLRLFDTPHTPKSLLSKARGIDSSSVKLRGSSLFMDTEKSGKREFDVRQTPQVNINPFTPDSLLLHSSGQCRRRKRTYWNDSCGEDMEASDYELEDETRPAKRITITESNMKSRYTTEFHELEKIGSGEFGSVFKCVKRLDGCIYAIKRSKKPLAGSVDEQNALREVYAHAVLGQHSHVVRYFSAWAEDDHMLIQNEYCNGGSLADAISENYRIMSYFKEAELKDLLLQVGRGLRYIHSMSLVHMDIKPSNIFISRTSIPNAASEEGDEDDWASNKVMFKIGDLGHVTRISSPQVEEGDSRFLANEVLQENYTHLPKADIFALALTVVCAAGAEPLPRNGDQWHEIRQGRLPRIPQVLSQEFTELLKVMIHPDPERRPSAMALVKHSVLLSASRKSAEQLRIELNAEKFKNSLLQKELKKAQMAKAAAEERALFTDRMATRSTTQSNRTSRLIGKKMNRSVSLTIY

C=CCn1c(=O)c2cnc(Nc3ccc(N4CCN(C)CC4)cc3)nc2n1-c1cccc(C(C)(C)O)n1 [MK-1775]
occurrence of pTyr37-H2B at site I and II [1]: significantly reduced | WEE1 activity in GBM tumor lysates (WEE1): significantly reduced
